Results from PubChem BioAssay (NCI).
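GI50: concentration for 50% inhibition of growth. TGI: concentration producing complete growth inhibition.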

What was measured:
Assay in all cases: DTP human tumour cell line panel, 384-well format
[1] = test system: 786-0 renal
[2] = test system: A498 renal
[3] = test system: A549 NSCLC
[4] = test system: ACHN renal
[5] = test system: BT-549 breast
[6] = test system: CAKI-1 renal
[7] = test system: CCRF-CEM leukemia
[8] = test system: COLO 205 colon
[9] = test system: DU-145 prostate
[10] = test system: EKVX NSCLC
[11] = test system: HCC-2998 colon
[12] = test system: HCT-116 colon
[13] = test system: HCT-15 colon
[14] = test system: HL-60(TB) leukemia
[15] = test system: HOP-62 NSCLC
[16] = test system: HOP-92 NSCLC
[17] = test system: HS 578T breast
[18] = test system: HT29 colon
[19] = test system: IGROV1 ovarian
[20] = test system: K-562 leukemia
[21] = test system: KM12 colon
[22] = test system: LOX IMVI melanoma
[23] = test system: M14 melanoma
[24] = test system: MALME-3M melanoma
[25] = test system: MCF7 breast
[26] = test system: MDA-MB-231 breast
[27] = test system: MDA-MB-435 melanoma
[28] = test system: MDA-MB-468 breast
[29] = test system: MOLT-4 leukemia
[30] = test system: NCI-H226 lung
[31] = test system: NCI-H23 lung
[32] = test system: NCI-H322M lung
[33] = test system: NCI-H460 NSCLC
[34] = test system: NCI-H522 lung
[35] = test system: NCI/ADR-RES ovarian
[36] = test system: OVCAR-3 ovarian
[37] = test system: OVCAR-4 ovarian
[38] = test system: OVCAR-5 ovarian
[39] = test system: OVCAR-8 ovarian
[40] = test system: PC-3 prostate
[41] = test system: RPMI-8226 leukemia
[42] = test system: RXF 393 renal
[43] = test system: SF-268 CNS
[44] = test system: SF-295 CNS
[45] = test system: SF-539 CNS
[46] = test system: SK-MEL-28 melanoma
[47] = test system: SK-MEL-5 melanoma
[48] = test system: SK-OV-3 ovarian
[49] = test system: SN12C renal
[50] = test system: SNB-19 CNS
[51] = test system: SNB-75 CNS
[52] = test system: SW-620 colon
[53] = test system: T-47D breast
[54] = test system: TK-10 renal
[55] = test system: U251 glioblastoma
[56] = test system: UACC-257 melanoma
[57] = test system: UACC-62 melanoma
[58] = test system: UO-31 renal

## CCN(CC)CCCCNc1ncc2cc(-c3cc(OC)cc(OC)c3)c(NC(=O)NC(C)(C)C)nc2n1
[1]
  GI50: 3050 nM
  TGI: 12700 nM
[2]
  GI50: 2480 nM
  TGI: 15000 nM
[3]
  GI50: 6040 nM
  TGI: 18500 nM
[4]
  GI50: 4170 nM
  TGI: 15800 nM
[5]
  GI50: 2490 nM
  TGI: 12800 nM
[6]
  GI50: 1650 nM
  TGI: 10900 nM
[7]
  GI50: 2160 nM
  TGI: 4680 nM
[8]
  GI50: 7160 nM
  TGI: 19400 nM
[9]
  GI50: 7200 nM
  TGI: 19500 nM
[10]
  GI50: 5430 nM
  TGI: 17500 nM
[11]
  GI50: 3010 nM
  TGI: 10500 nM
[12]
  GI50: 2860 nM
  TGI: 8340 nM
[13]
  GI50: 3020 nM
  TGI: 11600 nM
[14]
  GI50: 1780 nM
  TGI: 3190 nM
[15]
  GI50: 6070 nM
  TGI: 18200 nM
[16]
  GI50: 7760 nM
  TGI: 20100 nM
[17]
  GI50: 2280 nM
  TGI: 9130 nM
[18]
  GI50: 1600 nM
  TGI: 3460 nM
[19]
  GI50: 3560 nM
  TGI: 16000 nM
[20]
  GI50: 2560 nM
  TGI: 6170 nM
[21]
  GI50: 5320 nM
  TGI: 17300 nM
[22]
  GI50: 2460 nM
  TGI: 6580 nM
[23]
  GI50: 1900 nM
  TGI: 3820 nM
[24]
  GI50: 1880 nM
  TGI: 3350 nM
[25]
  GI50: 4040 nM
  TGI: 16200 nM
[26]
  GI50: 9090 nM
  TGI: 21100 nM
[27]
  GI50: 10900 nM
  TGI: 23000 nM
[28]
  GI50: 3810 nM
  TGI: 10100 nM
[29]
  GI50: 1640 nM
  TGI: 3260 nM
[30]
  GI50: 35.8 nM
  TGI: 17600 nM
[31]
  GI50: 10900 nM
  TGI: 22900 nM
[32]
  GI50: 6370 nM
  TGI: 19400 nM
[33]
  GI50: 3570 nM
  TGI: 12600 nM
[34]
  GI50: 10100 nM
  TGI: 21700 nM
[35]
  GI50: 5260 nM
  TGI: 17200 nM
[36]
  GI50: 4050 nM
  TGI: 14500 nM
[37]
  GI50: 13600 nM
  TGI: 26600 nM
[38]
  GI50: 9740 nM
  TGI: 21600 nM
[39]
  GI50: 5320 nM
  TGI: 17500 nM
[40]
  GI50: 7340 nM
  TGI: 19600 nM
[41]
  GI50: 4310 nM
  TGI: 14300 nM
[42]
  GI50: 1730 nM
  TGI: 5850 nM
[43]
  GI50: 1530 nM
  TGI: 4770 nM
[44]
  GI50: 12700 nM
  TGI: 25500 nM
[45]
  GI50: 2220 nM
  TGI: 8590 nM
[46]
  GI50: 3230 nM
  TGI: 8340 nM
[47]
  GI50: 1920 nM
  TGI: 4480 nM
[48]
  GI50: 3770 nM
  TGI: 14000 nM
[49]
  GI50: 4160 nM
  TGI: 15000 nM
[50]
  GI50: 13600 nM
  TGI: 26700 nM
[51]
  GI50: 613 nM
  TGI: 13800 nM
[52]
  GI50: 11300 nM
  TGI: 23400 nM
[53]
  GI50: 2820 nM
  TGI: 8190 nM
[54]
  GI50: 10600 nM
  TGI: 22700 nM
[55]
  GI50: 3840 nM
  TGI: 12600 nM
[56]
  GI50: 1980 nM
  TGI: 3410 nM
[57]
  GI50: 5330 nM
  TGI: 17000 nM
[58]
  GI50: 8380 nM
  TGI: 20700 nM

## COc1ccc(-c2nc(N3CCOCC3)c3sc(CN(C)c4ncc(C(=O)NO)cn4)cc3n2)cn1
[1]
  GI50: < 10 nM
  TGI: 28.4 nM
[2]
  GI50: < 10 nM
  TGI: 12.3 nM
[3]
  GI50: < 10 nM
  TGI: < 10 nM
[4]
  GI50: < 10 nM
  TGI: 13.3 nM
[5]
  GI50: < 10 nM
  TGI: 13.6 nM
[6]
  GI50: < 10 nM
  TGI: < 10 nM
[7]
  GI50: < 10 nM
  TGI: < 10 nM
[8]
  GI50: < 10 nM
  TGI: 11 nM
[9]
  GI50: < 10 nM
  TGI: < 10 nM
[10]
  GI50: 14 nM
  TGI: 76.5 nM
[11]
  GI50: < 10 nM
  TGI: < 10 nM
[12]
  GI50: < 10 nM
  TGI: < 10 nM
[13]
  GI50: < 10 nM
  TGI: 23.2 nM
[14]
  GI50: < 10 nM
  TGI: < 10 nM
[15]
  GI50: < 10 nM
  TGI: 17.4 nM
[16]
  GI50: < 10 nM
  TGI: 23.6 nM
[17]
  GI50: < 10 nM
  TGI: 16 nM
[18]
  GI50: < 10 nM
  TGI: 12.5 nM
[19]
  GI50: < 10 nM
  TGI: 10.6 nM
[20]
  GI50: < 10 nM
  TGI: < 10 nM
[21]
  GI50: < 10 nM
  TGI: 15.1 nM
[22]
  GI50: < 10 nM
  TGI: < 10 nM
[23]
  GI50: < 10 nM
  TGI: < 10 nM
[24]
  GI50: < 10 nM
  TGI: < 10 nM
[25]
  GI50: < 10 nM
  TGI: < 10 nM
[26]
  GI50: < 10 nM
  TGI: < 10 nM
[27]
  GI50: < 10 nM
  TGI: 10.1 nM
[28]
  GI50: < 10 nM
  TGI: < 10 nM
[29]
  GI50: < 10 nM
  TGI: < 10 nM
[30]
  GI50: < 10 nM
  TGI: 33 nM
[31]
  GI50: < 10 nM
  TGI: < 10 nM
[32]
  GI50: < 10 nM
  TGI: 19.1 nM
[33]
  GI50: < 10 nM
  TGI: 11.7 nM
[34]
  GI50: < 10 nM
  TGI: < 10 nM
[35]
  GI50: < 10 nM
  TGI: 12.5 nM
[36]
  GI50: < 10 nM
  TGI: < 10 nM
[37]
  GI50: 13.9 nM
  TGI: 40.7 nM
[38]
  GI50: < 10 nM
  TGI: 16.9 nM
[39]
  GI50: < 10 nM
  TGI: 10.1 nM
[40]
  GI50: < 10 nM
  TGI: 10.7 nM
[41]
  GI50: < 10 nM
  TGI: < 10 nM
[42]
  GI50: < 10 nM
  TGI: < 10 nM
[43]
  GI50: < 10 nM
  TGI: < 10 nM
[44]
  GI50: < 10 nM
  TGI: 18.9 nM
[45]
  GI50: < 10 nM
  TGI: 13.6 nM
[46]
  GI50: < 10 nM
  TGI: 17.9 nM
[47]
  GI50: < 10 nM
  TGI: < 10 nM
[48]
  GI50: < 10 nM
  TGI: < 10 nM
[49]
  GI50: < 10 nM
  TGI: 16.3 nM
[50]
  GI50: < 10 nM
  TGI: 18.7 nM
[51]
  GI50: < 10 nM
  TGI: 22.6 nM
[52]
  GI50: < 10 nM
  TGI: < 10 nM
[53]
  GI50: < 10 nM
  TGI: < 10 nM
[54]
  GI50: 11.6 nM
  TGI: 28.7 nM
[55]
  GI50: < 10 nM
  TGI: < 10 nM
[56]
  GI50: < 10 nM
  TGI: < 10 nM
[57]
  GI50: < 10 nM
  TGI: < 10 nM
[58]
  GI50: < 10 nM
  TGI: 26.9 nM
